Here are results for 1 compound from patent EP4796540A2, “N-SULFONAMIDE NITROGEN-CONTAINING FUSED HETEROCYCLIC COMPOUND, AND APPLICATION THEREOF” (priority 2023, dated 2025).

The subject of data set [1] is p53 Y220C mutant. The data set can be described thus: HTRF assay: compounds promoting the binding of p53 Y220C mutant with DNA. It is filed as biochemical. Conditions: His-tagged p53 Y220C (94-312), biotin-labeled DNA. How it is done: Homogeneous time-resolved fluorescence (HTRF) assay was used to measure the reactivation effect of compounds on the p53 Y220C mutant. The recombinant His-tagged p53 Y220C (94-312) used for HTRF assays was expressed in E. coli and purified to the purity of 90% through Ni-NTA column. The biotin-labeled DNA used for HTRF assays was synthesized by Pharmaron Inc, with the specific sequence of 5'-[…]-3' .
The binding of recombinant His-tagged p53 Y220C protein and biotin-labeled DNA was measured using fluorescence resonance energy transfer (FRET). For FRET assays, binding between p53 mutants and DNA sequences was measured by detecting the fluorescence of the interaction between an anti-His antibody (Cisbio, 61HI2KLA) conjugated to Eu and d2-conjugated streptavidin (Cisbio, 610SADLF) bound to a biotin-labeled DNA molecule. Compounds were prepared into 2 mM stock solutions and serially diluted into 10 concentrations at a 1:3 ratio in DMSO. Each 200-fold working concentration compound was sequentially diluted to 4-fold working concentration. 4 µL of compound solution was transferred line by line to a 384-well assay plate using Echo, containing 2 replicates per column. 4 µL of p53 solution was added to the assay plate. 4 µL of biotin DNA solution was added to the assay plate, and then 4 µL of assay solution (His-Eu antibody and streptavidin-d2) was added to each well of the assay plate. The assay plate was incubated overnight and protected from light. Fluorescence was read on BMG (BMG LRBTECH).
The ratio of each well was calculated (ratio_665 nm/615 nm-ratio_background). The activity % was calculated as follows: C = (Ave_Ac−Ave_Ba)/(Ave_Dc_Ave_Bd) [formula] R data = (A−Ave_Ba−C*D)/(D−Ave_Bd)*(Ave_Dc−Ave_Bd) [formula] Activity % = R data/Ave_VC*100. [formula] • A: fluorescence intensity of the sample at 665 nm; • D: fluorescence intensity of the sample at 615 nm; • Ba: fluorescence intensity of the plate background at 665 nm; • Bd: fluorescence intensity of the plate background at 615 nm; • Dc: fluorescence intensity of HIS-Eu background at 615 nm; • Ac: fluorescence intensity of streptavidin-d2 background at 665 nm; • VC: DMSO treatment group.
SC150 was calculated using Graphpad 8.0 to fit the logarithm of activity% and compound concentration to a nonlinear regression (dose response-variable slope). Table 1: Activity of compounds promoting the binding of p53 Y220C mutant with DNA

Data set [2] in a line: In vivo pharmacokinetic study in mice. To be noted: mouse, plasma; CD-1 mice (male), IV 1 mg/kg; read-out: Clint. How it is done:
1. Experimental purpose: To test the pharmacokinetics of compounds in CD-1 mice. 2. Experimental instrument and materials: Animals: CD-1 mice (male) Instrument: Intravenous injection: 40% HP-β-CD in water; intragastric administration: 0.2% HPC + 0.5% Tween80 in water. 6 male mice. Fasting treatment was performed in the evening before the administration, with free access to water. During the experiment, the mice were allowed to eat and drink freely, and administered by intravenous injection or gavage. After administration, the animal status was observed, and abnormal behaviors were recorded. Blood was collected from the orbit at 0.0833, 0.25, 1, 2, 4, 8, and 24 hours after intravenous injection, and at 0.25, 0.5, 1, 2, 4, 6, 8, and 24 hours after intragastric administration. 20 µL of plasma sample was taken and added with 250 µL of acetonitrile (containing dexamethasone as an internal standard) to precipitate proteins. The mixture was centrifuged at 4°C and 4000 rpm for 20 minutes, and 180 µL of the supernatant was taken and mixed with 180 µL of an aqueous solution containing 0.1% formic acid in a 96-well plate. […] Unknown samples were calculated by the standard curve. Pharmacokinetic parameters were calculated by the non-compartmental analysis model of WinNonlin 8.2 software and were presented in a report, including Clint, Cmax, AUC, etc. […]

Data set [3] is described as follows: In vivo pharmacokinetic study in rats. Conditions: rat, plasma; SD rats (male), IV 1 mg/kg; read-out: Clint. As to the method:
1. Experimental purpose: To test the pharmacokinetics of compounds in SD rats. 2. Experimental instrument and materials: Animal: SD rats (male) Instrument: Intravenous injection: 40% HP-β-CD in water; intragastric administration: 0.2% HPC + 0.5% Tween80 in water. 6 male rats. Fasting treatment was performed in the evening before the administration, with free access to water. During the experiment, the rats were allowed to eat and drink freely, and administered by intravenous injection or gavage. After administration, the animal status was observed, and abnormal behaviors were recorded. Blood was collected via jugular vein puncture at 0.0833, 0.25, 1, 2, 4, 8, and 24 hours after intravenous injection; Blood was collected via jugular vein puncture at 0.25, 0.5, 1, 2, 4, 6, 8, and 24 hours after intragastric administration. 50 µL of plasma sample was taken and added with 500 µL of acetonitrile (containing dexamethasone as an internal standard) to precipitate proteins. The mixture was centrifuged at 4°C and 4000 rpm for 20 minutes, and 300 µL of the supernatant was taken and mixed with 300 µL of Watsons aqueous solution in a 96-well plate. […] Unknown samples were calculated by the standard curve. Pharmacokinetic parameters were calculated by the non-compartmental analysis model of WinNonlin 8.2 software and were presented in a report, including Clint, Cmax, AUC, etc. […]

`[2H]C([2H])([2H])Oc1nc(C(=O)NS(C)(=O)=O)ccc1NCC#Cc1cc2c(N[C@@H]3CCN(C)C[C@@H]3F)cccn2c1CC(F)(F)F` [Cpd-2, 5-((3-(8-(((3S,4R)-3-Fluoro-1-methylpiperidin-4-yl)amino)-3-(2,2,2-trifluoroethyl)indolizin-2-yl)prop-2-yn-1-yl)amino)-6-(methoxy-d3)-N-(methylsulfonyl)picolinamide] showed an SC150 in data set [1] of 0.58 nM. The clearance in data set [2] came out at 0.9 L/h/kg; in data set [3] it was 0.198 L/h/kg.
